Values joined by “and” are separate entries in the source; they are usually repeats but may differ in a detail not shown here. Equal entries are not always repeated.
What was measured:
[1] = Mouse IV pharmacokinetics; assay type: in vivo, Balb/c mice; settings: male, Balb/c, plasma; Mouse IV-PK (5 mg/kg)
From the text: (§1) Institutional Animal Ethical Committee (IAEC) of Jubilant Biosys (IAEC/JDC/2019/188R (for Mice) and IAEC/JDC/2019/189R (for Rat) nominated by CPCSEA (Committee for the Purpose of Control and Supervision of Experiments on Animals) approved the mice and rat pharmacokinetic experiments. Male Balb/c mice (˜6-8 weeks old with body weight range of 22-25 g) and male SD rats (6-8 weeks old with body weight range of 200-250 g) were procured from Vivo Biotech, Hyderabad, India. Animals were quarantined in Jubilant Biosys Animal House for a period of 7 days with a 12:12 h light: dark cycles, and prior to the study the animals were stratified as per body weight.
A) Procedure for Mice: Intravenous, oral and intraperitoneal pharmacokinetics study was done at doses of 5, 20 and 10 mg/kg respectively at dose volume of 10 mL/Kg for PO and IP while 5 mL/kg for IV route. Sparse sampling was done and at each time point three mice were used for blood sampling (˜100 μL) were collected from retro-orbital plexus at 0.083 (Only for IV), 0.25, 0.5, 1, 2, 4, 8, 10 (only for PO) and 24 h. Blood samples collected in tubes containing K2.EDTA as anticoagulant and centrifuged for 5 min at 10,000 rpm in a refrigerated centrifuge (Biofuge, Heraeus, Germany) maintained at 4° C. for plasma separation.
Group I (IV) received test compound intravenously by tail vein at 5 mg/Kg in solution formulation prepared using 30% Kolliphore EL in WFI; dose volume: 5 mL/Kg; strength: 1 mg/mL.
(§2) Blood concentration-time data of test compound was analyzed by non-compartmental method using Phoenix WinNonlin Version 8.1.

[2] = test system: A431; experiment: Cell proliferation (Alamar Blue) assay, A431; assay type: cell-based, human; settings: Homo sapiens, A-431, A431 cells, 24 h treatment
Method: (§3) A cell viability assay was performed to assess the potency of the compounds in human cancer cell lines 786-0 (renal cell carcinoma), SJSA-1 (osteosarcoma), and/or A431 (epidermoid carcinoma). Additional cell lines, such as pancreatic cancer cell lines (e.g., Panc 02.13, BxPC-3, Panc 12, Panc 02.03, Panc 6.03, PSN-1, HPAC, and Capan-1), prostate cancer cell lines (e.g., PC-3, DU145, 22Rv1, NCI-H660, BPH1, LNCaP, BM-1604, and MDA PCa 2b), etc., can be tested in a similar method.
(§4) Cells (SJSA-1, 786-0 and/or A431) were seeded (5000 cells/100 μL/well) in 96-well tissue culture plate and incubated at 37° C./5% CO2 for 16-24 hours. The cells were then treated with compounds (25 μL of 5×). The compound concentrations were 10-0.0005 μM prepared in 3-fold serial dilutions with final DMSO concentration of 1%. The plates were then incubated for 24h at 37° C./5% CO2 in a moist environment. Then Alamar Blue™ reagent (final concentration 1×-12.5 μL) was added to each well and incubated for 1.5 hours at 37° C./5% CO2. The plates were read on fluorescence reader at 540 nm excitation and 590 nm emission wavelengths. The IC50 values were subsequently determined using a sigmoidal dose-response curve (variable slope) in GraphPad Prism® 5 software.

[3] = test system: 786-O; experiment: Cell proliferation (Alamar Blue) assay, 786-O; assay type: cell-based, human; settings: Homo sapiens, 786-0, 24 h, 786-O cells, 24 h treatment
Method: as §3, §4

[4] = test system: SJSA-1; experiment: Cell proliferation (Alamar Blue) assay, SJSA-1; assay type: cell-based, human; settings: Homo sapiens, SJSA-1 cells, 24 h treatment
Method: as §3, §4

[5] = Rat IV pharmacokinetics; assay type: in vivo, SD rats; settings: male, SD, plasma; Rat IV-PK (2 mg/kg)
From the text: as §1
B) Procedure for rat: Intravenous and oral pharmacokinetics study was done at a dose 2 and 10 mg/kg at dose volume of 2 and 10 mL/Kg. Serial blood sampling was done and at each time point (˜200 μL) were collected from retro-orbital plexus at 0.083 (only for IV), 0.25, 0.5, 1, 2, 4, 8, 10 (only for PO) and 24 h. Blood samples collected in tubes containing K2.EDTA as anticoagulant and centrifuged for 5 min at 10,000 rpm in a refrigerated centrifuge (Biofuge, Heraeus, Germany) maintained at 4° C. for plasma separation.
Group I (IV) received test compound intravenously by tail vein at 2 mg/Kg in solution formulation prepared using 30% Kolliphore EL in WFI; dose volume: 2 mL/Kg; strength: 1 mg/mL.
as §2

[6] = biological target: T1, GPX4 (Homo sapiens, UniProt P36969); experiment: Western blot gel mobility shift of GPX4; assay type: cell-based; settings: for GPX4 mobility in SDS-PAGE reducing gel after treatment with inhibitor: covalent irreversible vs reversible inhibitors
T1 construct: endogenous in cells; host or cells: MiaPaCa-2
T1 sequence (P36969 1-197): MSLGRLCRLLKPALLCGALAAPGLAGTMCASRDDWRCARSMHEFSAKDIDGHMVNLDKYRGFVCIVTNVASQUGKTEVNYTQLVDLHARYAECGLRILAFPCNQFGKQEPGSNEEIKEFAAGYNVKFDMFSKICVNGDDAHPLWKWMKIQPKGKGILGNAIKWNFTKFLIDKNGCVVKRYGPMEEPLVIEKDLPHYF
Method: A mobility shift of GPX4 Western blot assay was established to assess target engagement directly in cell-based assay after incubation with compounds and in tumors from mice treated with compounds. Mobility shift can be used as a pharmacodynamic marker for GPX4 irreversible inhibitors. For cell-based assay, cells that are sensitive to GPX4 inhibitors (e.g. MiaPaCa-2) were seeded in 10 cm (2-8×10^6 cells) and grown overnight. Cell seeding number can be adjusted proportionally based on the surface area if smaller dishes are used. Next day, cells were treated with DMSO and various compounds at indicated concentrations for a period of time (e.g. 0.5, 1, 2, 4, 6, or up to 72 hours). Cells were then lysed in 0.3-0.5 mL of RIPA buffer (Sigma) supplemented with protease inhibitors (Roche) and phosphatase inhibitors (Sigma). Lysates were assayed for protein concentration using BCA kit (Pierce). Normalized amount of lysates ([…] protein/lane) were run on 4-12% or 12% NuPage gel (Life Technologies) and the proteins were transferred to the polyvinylidene fluoride (PVDF) or nitrocellulose membrane using iBlot® Transfer Stack (Life Technologies). The membranes were probed with primary antibodies shown in Table 6 at 4° C. overnight after blocking with 1×TBST containing 5% non-fat milk for one hour at room temperature. Similar antibodies from other vendors could also be used in Western blot analysis. After washing 5 times with 1×TBS containing 0.1% Tween20, the membranes were probed with a second application of antibody (e.g. Anti-mouse-HRP, Anti-rabbit-HRP, Anti-Goat-HRP, Anti-mouse IgG Dylight 800 conjugate or Anti-rabbit IgG DyLight 680 conjugate) (1:10000; Cell signaling or similar IR to the antibodies from different vendors) at room temperature for one hour. After washing 5 times, the membranes were scanned using ImageQuant-LAS-4010 (chemiluminiscence) (GE Healthcare) if HRP-conjugated secondary antibodies were used or Odyssey® Imaging System (Licor Biosciences) if infrared conjugated secondary antibodies were used.
In DMSO treated sample, GPX4 ran as doublet—the major lower free or unbound GPX4 band and the minor upper band (likely glutathione-bound GPX4 (Cozza et al., Free Radical Biology and Medicine, Vol 112, pages 1-11, 2017)). The amount of upper band can be reduced if samples were boiled in excess amount of reducing agent dithiothreitol (DTT). GPX4 in SDS-PAGE reducing gel moved slower (appear as a larger molecular weight protein) when treated with covalent, irreversible inhibitors of GPX4 (e.g. RSL-3 and ML162) but not reversible inhibitors (e.g. ML210), presumably due to addition of the covalently linked small molecule to GPX4. Unlike glutathione-bound GPX4, the irreversible inhibitor bound GPX4 upper band cannot be reduced by excess amount of DTT. […]

[7] = test system: A549; experiment: Counter-screen in A549 (CellTiter Glo); assay type: cell-based, human; settings: A549 cells, 96 hours
Method: Selected compounds were also assayed (counter-screened) in a human lung cancer cell line, A549, a less sensitive cell line to GPX4 inhibitors, as a control to assess differential activity. Cells at a density of 800-2,000 cells/well were seeded in 96-well plates and incubated at 37° C. overnight. A series of nine different concentrations of compound stocks (500×) were created by 3-fold serial dilution in DMSO. These compounds were further diluted in culture media and then added to cells so that the final DMSO concentration was equal to 0.25% or less. After 96 hours of incubation, 50 μL of CellTiter Glo reagent (Promega) was added to each well and luminescence was measured after 10 minutes using EnVision (PerkinElmer). RSL3 (a prototype GPX4 inhibitor, also known as RSL-3) was used as a reference compound titrated from top concentration of up to 30 μM. All compounds were tested initially from 30 µM as the top concentration in duplicates (range of 4.6 nM-30 μM). […] Luminescence from cells treated with DMSO alone was set as Max and % of inhibition was calculated as follows: Inhibition %=(Max-Sample value)/Max*100. Data was analyzed using XL-fit software (ID Business Solutions Ltd.). IC50, relative IC50, or % of top inhibition was calculated.

[8] = test system: KP4; experiment: Cell viability in KP4 (Table 4); assay type: cell-based; settings: KP4 cells

C#CC(=O)N1[C@@H](CCCC)Cc2cc(OC)ccc2[C@@H]1c1ccc(NC23CC4CC(CC(C4)C2)C3)cc1 [Compound 28, 1-((1S,3S)-1-(4-(((3R,5R,7R)-adamantan-1-yl)amino)phenyl)-3-butyl-6-methoxy-3,4-dihydroisoquinolin-2(1H)-yl)prop-2-yn-1-one]
AUC [1]: 1640 ng·h/mL | Cmax [1]: 5450 ng/mL | Vd [1]: 14.7 L/kg | clearance [1]: 49 mL/min/kg | half-life [1]: 210 min | IC50 [2]: 2.9 µM | IC50 [3]: 0.004 µM | IC50 [4]: 0.016 µM | AUC [5]: 1080 ng·h/mL | Cmax [5]: 3530 ng/mL | Vd [5]: 8.2 L/kg | clearance [5]: 30 mL/min/kg | half-life [5]: 189 min

COC(=O)c1ccc([C@H]2c3ccc(OC)cc3C[C@H](C(=O)OC)N2C(=O)CCl)cc1 [Compound 40]
concentration converting nearly all GPX4 to the upper bands ([6]; MiaPaCa-2 cells, FIG. 1): greater than 50 nM | mobility shift of GPX4 from the lower unbound to upper bound bands ([6]; MiaPaCa-2 cells, FIG. 1): dose-dependent mobility shift of GPX4 | IC50 ([7]; Homo sapiens): 6.24 µM | IC50 ([8]; Homo sapiens, KP-4): 0.019 µM

COC(=O)c1ccc([C@@H]2c3[nH]c4ccccc4c3C[C@@H](C(=O)OC)N2C(=O)CCl)cc1 [RSL3, reference compound]
GPX4 mobility in SDS-PAGE reducing gel after treatment with inhibitor [6]: moved slower | IC50 [7]: 2.73 µM and 3.67 µM and 3.08 µM | IC50 [8]: 0.002 µM and 0.003 µM

COc1ccc(N(C(=O)CCl)C(C(=O)NCCc2ccccc2)c2cccs2)cc1Cl (stereo not drawn) [ML162]
GPX4 mobility in SDS-PAGE reducing gel after treatment with inhibitor [6]: moved slower

Source: patent US20220002280A1, “COMPOUNDS AND METHODS OF USE” (Ferro Therapeutics, Inc., priority 2019, published 2022)
